According to patent publication US7919529B2, “δ-amino-γ-hydroxy-ω-aryl-alkanoic acid amides” (Novartis AG, priority 2003, dated 2011):

Target: T1, Recombinant human renin (Homo sapiens, UniProt P00797)
T1 construct: made in house; host or cells: Chinese Hamster Ovary cells
T1 sequence (P00797 67-406): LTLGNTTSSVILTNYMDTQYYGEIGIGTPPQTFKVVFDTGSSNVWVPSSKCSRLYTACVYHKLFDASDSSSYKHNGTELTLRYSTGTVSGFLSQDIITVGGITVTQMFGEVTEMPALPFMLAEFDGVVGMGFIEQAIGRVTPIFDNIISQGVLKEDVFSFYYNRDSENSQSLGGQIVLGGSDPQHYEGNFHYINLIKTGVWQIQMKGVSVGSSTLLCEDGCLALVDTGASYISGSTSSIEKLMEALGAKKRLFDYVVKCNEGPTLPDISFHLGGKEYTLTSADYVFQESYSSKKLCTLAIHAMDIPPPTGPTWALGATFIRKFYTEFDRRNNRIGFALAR
Assay: FRET assay of renin inhibition
Type: biochemical
Method: Recombinant human renin (expressed in Chinese Hamster Ovary cells and purified using standard methods) at 4 nM concentration is incubated with test compound at various concentrations for 1 h at RT in 0.1 M Tris-HCl buffer, pH 7.4, containing 0.05 M NaCl, 0.5 mM EDTA and 0.05% CHAPS. Synthetic peptide substrate Arg-Glu(EDANS)-Ile-His-Pro-Phe-His-Leu-Val-Ile_His_Thr-Lys(DABCYL)-Arg9 is added to a final concentration of 2 μM and increase in fluorescence is recorded at an excitation wave-length of 340 nm and at an emission wave-length of 485 nm in a microplate spectro-fluorimeter. IC50 values are calculated from percentage of inhibition of renin activity as a function of test compound concentration (Fluorescence Resonance Energy Transfer, FRET, assay).

IC50: ~0.3 nM
SMILES: COCCCOc1cc(C[C@@H](C[C@H](N)[C@@H](O)C[C@H](C(=O)N[C@@H](C)C2CCCCC2)C(C)C)C(C)C)ccc1OC [Example 29, (2S,4S,5S,7S)-5-Amino-4-hydroxy-2-isopropyl-7-[4-methoxy-3-(3-methoxy-propoxy)-benzyl]-8-methyl-nonanoic acid ((S)-1-cyclohexyl-ethyl)-amide]
